Data published in patent publication US8067599B2 (Hoffman-La Roche Inc., priority 2006, dated 2011).
Counter-ions that a name gives are not always drawn.

Legend:
[1] = target: T1, fusion protein corresponding to mouse Abl (27-end) (Mus musculus, UniProt P00520); assay: IC50 determination for inhibitors of Abl kinase (IMAP fluorescence polarization); format: biochemical; conditions: 22.8 uM ATP, 37° C., 60 minutes; read-out: IC50 Abl kinase inhibition
T1 construct: fusion protein corresponding to mouse Abl (27-end)
T1 sequence (P00520 27-1123 limits assumed): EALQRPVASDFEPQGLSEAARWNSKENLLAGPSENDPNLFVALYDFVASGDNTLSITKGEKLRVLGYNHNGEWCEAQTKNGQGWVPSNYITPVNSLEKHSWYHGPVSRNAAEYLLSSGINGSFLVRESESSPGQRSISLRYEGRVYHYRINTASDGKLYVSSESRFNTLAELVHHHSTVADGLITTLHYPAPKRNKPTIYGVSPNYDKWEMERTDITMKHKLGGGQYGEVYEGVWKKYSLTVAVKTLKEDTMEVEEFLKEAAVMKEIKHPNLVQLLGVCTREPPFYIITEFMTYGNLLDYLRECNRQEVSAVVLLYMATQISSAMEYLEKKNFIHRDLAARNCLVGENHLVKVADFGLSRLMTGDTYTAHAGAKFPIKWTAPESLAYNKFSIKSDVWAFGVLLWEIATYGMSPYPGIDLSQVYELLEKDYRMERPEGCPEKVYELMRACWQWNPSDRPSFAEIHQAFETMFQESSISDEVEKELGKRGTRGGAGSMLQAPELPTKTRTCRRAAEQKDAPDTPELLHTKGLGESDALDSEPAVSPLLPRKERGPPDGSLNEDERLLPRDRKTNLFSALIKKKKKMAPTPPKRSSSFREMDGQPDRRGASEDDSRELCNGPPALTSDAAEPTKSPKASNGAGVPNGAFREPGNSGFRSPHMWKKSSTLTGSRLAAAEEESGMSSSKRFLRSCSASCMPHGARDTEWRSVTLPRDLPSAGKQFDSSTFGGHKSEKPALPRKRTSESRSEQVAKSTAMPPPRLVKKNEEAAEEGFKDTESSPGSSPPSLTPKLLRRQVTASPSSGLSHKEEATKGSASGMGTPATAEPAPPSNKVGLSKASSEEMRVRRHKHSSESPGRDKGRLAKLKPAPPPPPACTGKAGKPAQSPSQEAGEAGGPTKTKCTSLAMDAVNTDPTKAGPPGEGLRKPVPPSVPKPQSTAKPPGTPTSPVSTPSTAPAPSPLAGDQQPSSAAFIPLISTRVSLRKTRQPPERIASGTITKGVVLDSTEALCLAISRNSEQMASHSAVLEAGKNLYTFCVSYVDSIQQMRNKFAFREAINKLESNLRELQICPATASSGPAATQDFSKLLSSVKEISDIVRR
Description: Abl assay was done using fusion protein corresponding to mouse Abl (27-end), fluorescein labeled peptide substrate (with a sequence of EAIYAAPFAKKK) and quantified by Molecular Devices' IMAP fluorescence polarization technology. Compounds were tested in serially diluted concentrations in 384 well plates. Kinase reaction was performed in KAB Buffer (10 mM HEPES, pH 7, 50 mM NaCl, 5 mM MgCl2, 1 mM DTT, 0.1 mM NaVO4, 0.02% BSA), in the presence of 22.8 uM ATP, incubated at 37° C. for 60 minutes. Reaction was stopped by IMAP bead mix (at 1:400 diluted). After incubation at room temperature for 3 hours, the reaction product was analyzed on LJL Acquest (excitation 485 nm and Emission 530 nm).
FP reading (in mP) was used to calculate reaction rate. The assay was semi automated by Tomtec Quadra workstation.

[2] = target: T2, mouse full-length Src protein (Mus musculus, UniProt P05480); assay: IC50 determination for inhibitors of Src kinase (IMAP fluorescence polarization); format: biochemical; conditions: 24 uM ATP, 37° C., 60 minutes; read-out: IC50 Src kinase inhibition
T2 construct: mouse full-length Src protein
T2 sequence (P05480 whole entry): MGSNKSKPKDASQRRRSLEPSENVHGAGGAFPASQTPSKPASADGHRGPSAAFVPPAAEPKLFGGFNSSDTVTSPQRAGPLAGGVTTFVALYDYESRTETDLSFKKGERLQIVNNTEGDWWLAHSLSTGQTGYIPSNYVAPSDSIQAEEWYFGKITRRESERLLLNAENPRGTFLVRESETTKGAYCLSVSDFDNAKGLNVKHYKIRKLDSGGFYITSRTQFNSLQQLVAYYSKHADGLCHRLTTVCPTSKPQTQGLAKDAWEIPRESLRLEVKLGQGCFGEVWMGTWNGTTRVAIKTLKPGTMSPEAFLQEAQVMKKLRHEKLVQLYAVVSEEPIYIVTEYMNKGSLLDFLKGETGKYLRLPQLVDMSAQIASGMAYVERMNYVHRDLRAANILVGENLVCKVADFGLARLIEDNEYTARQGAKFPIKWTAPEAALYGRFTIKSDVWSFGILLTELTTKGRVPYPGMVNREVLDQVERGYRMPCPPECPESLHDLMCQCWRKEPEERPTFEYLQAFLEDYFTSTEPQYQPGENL
Description: Src assay was done using mouse full-length Src protein, fluorescein labeled peptide substrate (with a sequence of KVEKIGEGTYGVVYK) and quantified by Molecular Devices' IMAP fluorescence polarization technology. Compounds were tested in serially diluted concentrations in 384 well plates. Kinase reaction was performed in KAB Buffer (10 mM HEPES, pH 7, 50 mM NaCl, 5 mM MgCl2, 1 mM DTT, 0.1 mM NaVO4, 0.02% BSA), in the presence of 24 uM ATP, incubated at 37° C. for 60 minutes. Reaction was stopped by IMAP bead mix (at 1:400 dilution). After incubation at room temperature for 2 hours, the reaction product was analyzed on LJL Acquest (excitation 485 nm and Emission 530 nm).
(§1) FP reading (in mP) was used to calculate reaction rate. The assay was semi-automated by Tomtec Quadra workstation.

[3] = target: human recombinant PDGFR beta (Homo sapiens, UniProt P09619); assay: IC50 determination for inhibitors of PDGFR kinase (IMAP fluorescence polarization); format: biochemical; conditions: 48 uM ATP, room temperature, 60 minutes, read-out: IC50 PDGFR kinase inhibition
Chain of human recombinant PDGFR beta (P09619 33-1106): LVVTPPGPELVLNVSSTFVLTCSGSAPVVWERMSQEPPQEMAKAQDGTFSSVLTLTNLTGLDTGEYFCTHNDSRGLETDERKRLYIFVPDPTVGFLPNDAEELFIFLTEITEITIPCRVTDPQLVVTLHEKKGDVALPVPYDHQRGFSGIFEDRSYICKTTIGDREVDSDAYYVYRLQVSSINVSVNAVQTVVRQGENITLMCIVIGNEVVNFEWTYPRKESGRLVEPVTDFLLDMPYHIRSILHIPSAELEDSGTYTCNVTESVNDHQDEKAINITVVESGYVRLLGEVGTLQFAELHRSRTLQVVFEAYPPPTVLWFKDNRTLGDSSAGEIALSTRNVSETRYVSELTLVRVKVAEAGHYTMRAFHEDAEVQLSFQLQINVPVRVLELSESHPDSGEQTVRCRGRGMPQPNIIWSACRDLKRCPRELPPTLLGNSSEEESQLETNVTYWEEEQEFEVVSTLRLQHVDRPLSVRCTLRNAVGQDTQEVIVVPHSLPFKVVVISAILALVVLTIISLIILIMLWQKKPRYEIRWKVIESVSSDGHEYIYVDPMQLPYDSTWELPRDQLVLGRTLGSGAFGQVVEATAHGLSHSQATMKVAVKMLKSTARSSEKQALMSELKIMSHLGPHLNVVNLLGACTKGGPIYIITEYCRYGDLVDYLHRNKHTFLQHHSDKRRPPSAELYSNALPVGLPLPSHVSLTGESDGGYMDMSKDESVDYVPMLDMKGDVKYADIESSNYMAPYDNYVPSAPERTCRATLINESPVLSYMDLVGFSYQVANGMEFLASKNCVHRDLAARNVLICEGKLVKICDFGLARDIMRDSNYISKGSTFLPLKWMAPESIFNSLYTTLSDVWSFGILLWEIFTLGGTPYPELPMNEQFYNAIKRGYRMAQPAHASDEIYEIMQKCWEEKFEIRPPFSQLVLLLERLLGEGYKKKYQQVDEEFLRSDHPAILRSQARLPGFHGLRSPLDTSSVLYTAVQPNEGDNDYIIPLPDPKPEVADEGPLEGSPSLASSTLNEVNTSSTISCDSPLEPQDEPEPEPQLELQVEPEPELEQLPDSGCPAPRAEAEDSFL
Description: PDGFR assay was carried out with human recombinant PDGFR beta, fluorescein labeled peptide substrate (with a peptide sequence of ALTSNQEYLDLSMPL) and test compounds (in serial dilution) using 384-well plates. Kinase reaction was performed in MOPS buffer (20 mM MOPS pH 7.1, 5 mM Sodium Acetate, 6.25 mM MgCl2, 0.5 mM EDTA, 1 mM DTT, 0.04 mM NaVO4, 0.02% BSA), in the presence of 48 uM ATP, incubated at room temperature for 60 minutes. Reaction was stopped by IMAP Bead Binding System (Molecular Devices). After incubation at room temperature for 2 hours, the reaction product was analyzed on LJL Acquest.
as §1

HCT 116 cells = assay: CellTiter-Glo assay in HCT 116 cells (antiproliferative activity); format: cell-based; conditions: Homo sapiens, HCT-116, 120 h, cell viability after 5 days
Description: The CellTiter-Glo™ Luminescent Cell Viability Assay (Promega) is a homogeneous method of determining the number of viable cells in culture based on quantitation of the ATP present, which signals the presence of metabolically active cells.
HCT 116 cells (human colon carcinoma, ATCC-No. CCl-247) were cultivated in RPMI 1640 medium with GlutaMAX™ 1 (Invitrogen, Cat-No. 61870-010), 5% Fetal Calf Serum (FCS, Sigma Cat-No. F4135 (FBS)); 100 Units/ml penicillin/100 μg/ml streptomycin (=Pen/Strep from Invitrogen Cat. No. 15140). For the assay the cells were seeded in 384 well plates, 1000 cells per well, in the same medium. The next day the test compounds were added in various concentrations ranging from 30 μM to 0.0015 μM (10 concentrations, 1:3 diluted). After 5 days the CellTiter-Glo™ assay was done according to the instructions of the manufacturer (CellTiter-Glo™ Luminescent Cell Viability Assay, from Promega). In brief: the cell-plate was equilibrated to room temperature for approximately 30 minutes and than the CellTiter-Glo™ reagent was added. The contents were carefully mixed for 15 minutes to induce cell lysis. After 45 minutes the luminescent signal was measured in Victor 2, (scanning multiwell spectrophotometer, Wallac).
• Medium: RPMI 1640 with GlutaMAX™ 1 (Invitrogen, Cat-No. 61870), 5% FCS (Sigma Cat.-No. F4135), Pen/Strep (Invitrogen, Cat No. 15140). • HCT116 (ATCC-No. CCl-247): 1000 cells in 60 μl per well of 384 well plate (Greiner 781098, μClear-plate white) • After seeding incubate plates 24 h at 37° C., 5% CO2 2nd. Day: Induction (Treatment with Compounds, 10 Concentrations):
In order to achieve a final concentration of 30 μM as highest concentration 3.5 μl of 10 mM compound stock solution were added directly to 163 μl media. Then step e) of the dilution procedure described below, was followed.

Structure (SMILES) | IC50 [1] | IC50 [2] | IC50 [3] | IC50 (HCT 116 cells)
CN(C)CCOc1cccc(-c2ccc(C(=O)Nc3ccc(Cl)c(C(=O)Nc4cnc5[nH]ccc5c4)c3)cc2)c1 [Example 1-1] | 5 to 1000 nM | 5 to 1000 nM | 10 to 1000 nM | 1810 nM
CC(Sc1cccc(-c2ccc(C(=O)Nc3ccc(Cl)c(C(=O)Nc4cnc5[nH]ccc5c4)c3)cc2)c1)C(N)=O (stereo not drawn) [Example 1-2, 3′-(1-Carbamoyl-ethylsulfanyl)-biphenyl 4 carboxylic acid [4-chloro 3 (1H-pyrrolo[2,3-b]pyridin-5-ylcarbamoyl)-phenyl]-amide] | – | – | – | 100 to 10000 nM
O=C(Nc1ccc(Cl)c(C(=O)Nc2cnc3[nH]ccc3c2)c1)c1cccc(-c2ccccc2)c1 [Example 2-1, Biphenyl-3-carboxylic acid[4-chloro-3-(1H-pyrrolo[2,3-b]pyridin-5-ylcarbamoyl)-phenyl]-amide] | 5 to 1000 nM | 5 to 1000 nM | 14 nM | 100 to 10000 nM
O=C(Nc1ccc(Cl)c(C(=O)Nc2cnc3[nH]ccc3c2)c1)c1ccc(-c2ccccc2)cc1 [Example 2-2, Biphenyl-4-carboxylic acid [4-chloro-3-(1H-pyrrolo[2,3-b]pyridin-5-ylcarbamoyl)-phenyl]-amide] | 63 nM | 5 to 1000 nM | 10 to 1000 nM | 100 to 10000 nM
Cc1n[nH]c(C)c1-c1ccccc1C(=O)Nc1ccc(Cl)c(C(=O)Nc2cnc3[nH]ccc3c2)c1 [Example 3-1] | – | 5 to 1000 nM | – | –
O=C(Nc1ccc(Cl)c(C(=O)Nc2cnc3[nH]ccc3c2)c1)c1cc(-c2ccccc2Cl)no1 [Example 4-1, 3-(2-Chloro-phenyl)-isoxazole-5-carboxylic acid[4-chloro-3-(1H-pyrrolo[2,3-b]pyridin-5-ylcarbamoyl)-phenyl]-amide] | 5 to 1000 nM | – | – | 100 to 10000 nM
Cc1c(C(=O)Nc2ccc(Cl)c(C(=O)Nc3cnc4[nH]ccc4c3)c2)cnn1-c1ccccc1 [Example 4-2, 5-Methyl-1-phenyl-1H-pyrazole-4-carboxylic acid [4-chloro-3-(1H-pyrrolo[2,3-b]pyridin-5-ylcarbamoyl)-phenyl]-amide] | 5 to 1000 nM | 5 to 1000 nM | – | –
O=C(Nc1ccc(Cl)c(C(=O)Nc2cnc3[nH]ccc3c2)c1)c1cccc(N2CCOCC2)c1 [Example 4-3, 2-Chloro-5-(3-morpholin-4-yl-benzoylamino)-N-(1H-pyrrolo[2,3-b]pyridin-5-yl)-benzamide] | 5 to 1000 nM | 5 to 1000 nM | – | 100 to 10000 nM
COc1ccccc1/C=C/C(=O)Nc1ccc(Cl)c(C(=O)Nc2cnc3[nH]ccc3c2)c1 [Example 4-4, 2-Chloro-5-[(E)-3-(2-methoxy-phenyl)-acryloylamino]-N-(1H-pyrrolo[2,3-b]pyridin-5-yl)-benzamide] | – | – | – | 100 to 10000 nM
CC(C)(C)Oc1ccc(C(=O)Nc2ccc(Cl)c(C(=O)Nc3cnc4[nH]ccc4c3)c2)cc1 [Example 4-5, 5-(4-tert-Butoxy-benzoylamino)-2-chloro-N-(1H-pyrrolo[2,3-b]pyridin-5-yl)-benzamide] | 5 to 1000 nM | 5 to 1000 nM | – | 380 nM
CC(C)(C#N)c1cccc(C(=O)Nc2ccc(Cl)c(C(=O)Nc3cnc4[nH]ccc4c3)c2)c1 [Example 4-6, 2-Chloro-5-[3-(cyano-dimethyl-methyl)-benzoylamino]-N-(1H-pyrrolo[2,3-b]pyridin-5-yl)-benzamide] | 5 to 1000 nM | – | – | 100 to 10000 nM
COc1ccc([C@H]2C[C@@H]2C(=O)Nc2ccc(Cl)c(C(=O)Nc3cnc4[nH]ccc4c3)c2)cc1 [Example 4-7, 2-Chloro-5-{[(1S,2S)-2-(4-methoxy-phenyl)-cyclopropanecarbonyl]-amino}-N-(1H-pyrrolo[2,3-b]pyridin-5-yl)-benzamide] | – | – | – | 100 to 10000 nM
Cc1ccc(NC(=O)c2ccccc2)cc1C(=O)Nc1cnc2[nH]cnc2c1 [Example 6-1, 5-benzoylamino-N-(3H-imidazo[4,5-b]pyridin-6-yl)-2-methyl-benzamide] | 5 to 1000 nM | 10 nM | – | –
Cc1ccc(NC(=O)c2cccc(-c3ccccc3)c2)cc1C(=O)Nc1cnc2[nH]cnc2c1 [Example 6-2, Biphenyl-3-carboxylic acid [3-(3H-imidazo[4,5-b]pyridin-6-ylcarbamoyl)-4-methyl-phenyl]-amide] | – | 5 to 1000 nM | 1120 nM | –
Cc1ccc(NC(=O)c2ccc(-c3ccccc3)cc2)cc1C(=O)Nc1cnc2[nH]cnc2c1 [Example 6-3, Biphenyl-4-carboxylic acid [3-(3H-imidazo[4,5-b]pyridin-6-ylcarbamoyl)-4-methyl-phenyl]-amide] | – | 5 to 1000 nM | – | –
O=C(Nc1ccc(N2CCOCC2)cc1)c1ccc(Cl)c(C(=O)Nc2cnc3[nH]ccc3c2)c1 [Example 7-1, 4-Chloro-N^1-(4-morpholin-4-yl-phenyl)-N^3-(1H-pyrrolo[2,3-b]pyridin-5-yl)-isophthalamide] | 831 nM | 5 to 1000 nM | 10 to 1000 nM | –
O=C(Nc1ccc(Oc2ccccc2)nc1)c1ccc(Cl)c(C(=O)Nc2cnc3[nH]ccc3c2)c1 [Example 8-1, 4-Chloro-N^1-(6-phenoxy-pyridin-3-yl)-N^3-(1H-pyrrolo[2,3-b]pyridin-5-yl)-isophthalamide hydrochloride] | – | – | – | 100 to 10000 nM
O=C(Nc1nc2c(c(C(F)(F)F)n1)CCCC2)c1ccc(Cl)c(C(=O)Nc2cnc3[nH]ccc3c2)c1 [Example 8-2, 4-Chloro-N^3-(1H-pyrrolo[2,3-b]pyridin-5-yl)-N^1-(4-trifluoromethyl-5,6,7,8-tetrahydro-quinazolin-2-yl)-isophthalamide hydrochloride] | – | – | – | 100 to 10000 nM
O=C(N[C@H]1C[C@@H]1c1ccccc1)c1ccc(Cl)c(C(=O)Nc2cnc3[nH]ccc3c2)c1 [Example 8-3, 4-Chloro-N^1-((1S,2R)-2-phenyl-cyclopropyl)-N^3-(1H-pyrrolo[2,3-b]pyridin-5-yl)-isophthalamide hydrochloride] | – | – | – | 100 to 10000 nM
O=C(Nc1cccc(-n2cccn2)c1)c1ccc(Cl)c(C(=O)Nc2cnc3[nH]ccc3c2)c1 [Example 8-5, 4-Chloro-N^1-(3-pyrazol-1-yl-phenyl)-N^3-(1H-pyrrolo[2,3-b]pyridin-5-yl)-isophthalamide hydrochloride] | – | – | – | 100 to 10000 nM
CC(C)(C#N)c1cccc(NC(=O)c2ccc(Cl)c(C(=O)Nc3cnc4[nH]ccc4c3)c2)c1 [Example 8-7, 4-Chloro-N^1-[3-(cyano-dimethyl-methyl)-phenyl]-N^3-(1H-pyrrolo[2,3-b]pyridin-5-yl)-isophthalamide hydrochloride] | – | – | – | 100 to 10000 nM
CN1C(=O)CSc2cc(NC(=O)c3ccc(Cl)c(C(=O)Nc4cnc5[nH]ccc5c4)c3)ccc21 [Example 8-8, 4-Chloro-N^1-(4-methyl-3-oxo-3,4-dihydro-2H-benzo[1,4]thiazin-7-yl)-N^3-(1H-pyrrolo[2,3-b]pyridin-5-yl)-isophthalamide hydrochloride] | – | – | – | 100 to 10000 nM
